Laboratory results published in patent US20220023269A1, “Methods Of Treating Diabetes In Severe Insulin-Resistant Diabetic Subjects” (Balticgruppen Bio AB, priority 2018, published 2022).

What was measured:
[1] = test system: DIO mice (B6CBAF1/J); assay: Laser Doppler imaging of peripheral blood perfusion; type: in vivo; conditions: 40 mg/kg/day gavage, 8 w, vs vehicle
Experimental: 9 weeks old F1 mice were fed HFD for 8 weeks and treated with either vehicle or test material (40 mg/kg, orally once a day). Veet hair removal cream was used to remove hair from the left hind limb one day prior to blood perfusion analysis. Mice were anaesthetised using isoflurane and placed on a heating pad. Blood perfusion was scanned using a PeriScan PIM II Images and LDPIwin software (version 2.6.1) was used to analyse the images.

[2] = test system: primary mouse islets; assay: Unfolded protein response gene expression in islets at 22 mM glucose; type: cell-based
Experimental: For RNA purification calf muscle, iWAT, interscapular BAT, and left lateral liver lobe was crushed in a pestle using liquid nitrogen before turning to respective RNA kit. RNA from liver was prepared using Total RNA isolation Nucleospin II Kit (Macherey-Nagel #740955.50). RNA from adipose tissue was prepared using RNeasy Lipid Tissue Mini kit (Qiagen #74804). RNA from calf muscle tissue was prepared using RNeasy Fibrous Tissue Mini kit (Qiagen #74704). First strand cDNA synthesis was done using SuperScript III (First-Strand Synthesis SuperMix for qRT-PCR, Invitrogen #11752-250) according to the manufacturer's instructions. Total RNA was prepared from isolated islets using RNeasy Micro Kit (Qiagen #74004) and first strand cDNA synthesis was done using Superscript III (Invitrogen #18080-051) according to the manufacturer's instructions. Quantification of mRNA expression levels was performed essentially as previously described (Reference 3). Tyrosine 3-monooxygenase/tryptophan 5-monoxygenase activation protein, zeta polypeptide (YWHAS) was used to normalise expression levels except for islets where TBP was used.

[3] = Pharmacokinetics in mice and rats (plasma, liver, brain); type: in vivo; conditions: rodents
Experimental: Pharmacokinetics of the test material in C57BL/6JBomTac mice and NTac:SD rats were determined via UHPLC-ESI Triple Quad MSMS in plasma from non-fasted animals. The test material (40 mg/kg test material) was administered via oral gavage and 4-, 8-, 12- and 24-hours after administration blood was collected. Test material levels were determined in liver and brain from non-fasted Crl:CD (SD) rats administered the test material (40 mg/kg test material), once daily for 3 weeks, via oral gavage. The test material was extracted in acetonitrile and levels determined using UHPLC-ESI Triple Quad MSMS.

[4] = test system: AMPK in human islets; assay: AMPK activation in human islets; type: cell-based; conditions: 1.0, 2.5, 5.0, 10 μM, 4 hours
Experimental: (§1) All cell lines were lysed in 0.1 M Tris-HCl, pH 6.8, 2% SDS, 10 mM sodium fluoride (SIGMA #S7920), 10 mM β-glycerophosphate (SIGMA #G6376), and 1 mM sodium vanadate (SIGMA #72060) and supernatant collected after 1 minute at 14,000 rpm. Islets (human and mouse) were lysed in 0.1 M Tris-HCl, pH 6.8, 2% SDS, protease inhibitor (Roche #04 693 124 001) and phosphatase inhibitor (Roche #04 906 837 001). Right calf muscle, heart, iWAT, and interscapular BAT was crushed in a pestle using liquid nitrogen and homogenised in ice cold RIPA buffer (150 mM sodium chloride (SIGMA #S7653), 1.0% NP40 (USB), 0.5% sodium deoxycholate (SIGMA #D6750), 0.1% SDS, 50 mM Tris pH 8.0, 20 mM sodium pyrophosphate (SIGMA #71515), 10 mM sodium fluoride, 10 mM β-glycerolphosphate, 1 mM sodium vanadate and protease inhibitor cocktail (Roche #04693124001), 1 tablet/10 ml lysis buffer). The supernatant was collected after 2 min at 14,000 rpm. This procedure was repeated until all fat was eliminated and the supernatant was clear, at 4° C. Samples were analysed on 4-15% polyacrylamide gels. Values were normalised toward AMPKα, β-Actin, GAPDH or the respective non-phosphorylated counterpart.
(§2) Table 3 contains origin of cell lines, growth conditions and settings for activation of AMPK via the test material. […]

[5] = test system: aged, lean B6 mice; assay: Treadmill endurance test; type: in vivo; conditions: 20 mg/kg/day gavage, 30 days
Experimental: One week prior to the test mice went through a familiarization session of 5 minutes on the treadmill. Running protocol as follows: 15 minutes at 18.8 m/minute, 5 minutes at 24.4 m/minute and 27.1 m/minute until exhaustion. At exhaustion, blood lactate levels were measured using a lactate test meter (Arkray).

[6] = test system: AMPK in human hepatocytes; assay: AMPK activation assay in human hepatocytes; type: cell-based; conditions: cells preferentially expressing β2 subunit
Experimental: as §1, §2

blood-brain barrier crossing [3]: does not cross the blood-brain barrier | oral availability [3]: orally available | plasma half-life [3]: long
SMILES: O=C(Nc1nc(=O)n(Cc2ccc(Cl)cc2)s1)c1ccc(Cl)cc1 [test material, 4-chloro-N-[2-[(4-chlorophenyl)methyl]-3-oxo-1,2,4-thiadiazol-5-yl]benzamide]
microvascular blood flow in hind legs [1]: significantly increased microvascular blood flow | expression of unfolded protein response genes (ER stress) [2]: largely prevented an increased expression of unfolded protein response genes | pAMPKα [4]: directly increased pAMPKα | blood lactate levels after endurance test [5]: significantly reducing the increase in blood lactate levels | endurance capacity (running distance to exhaustion) ([5]; vs vehicle): significantly improved endurance capacity | pAMPK [6]: increased pAMPK
